Like-named read-outs stand apart in the source and are kept apart here.
How the values were obtained:
mu opioid receptor = target: T1, mu opioid receptor (Rattus norvegicus, UniProt P33535); experiment: Rat brain mu opioid receptor binding assay; details: rat forebrain, [3H]DAMGO ligand
T1 construct: the forebrains were homogenized in Tris buffer in a Teflon®-glass homogenizer; from tissue; host or cells: forebrain of male Wistar rats, particulate (membrane) preparation

delta opioid receptor [1] = target: T2, delta opioid receptor (Rattus norvegicus, UniProt P33533); experiment: Rat brain delta opioid receptor binding assay; details: rat forebrain, [3H]naltrindole ligand
T2 construct: the forebrains were homogenized in Tris buffer in a Teflon®-glass homogenizer; from tissue; host or cells: forebrain of male Wistar rats, particulate (membrane) preparation

delta opioid receptor [2] = target: T3, delta opioid receptor (Mus musculus, UniProt P32300); experiment: [35S]GTPγS binding assay in NG108-15 cell membranes (delta opioid functional assay), 200 nM screen; format: biochemical; details: for EC50 / GTPγS δ-opioid receptor Rel Efficacy / GTPγS δ-RelEfficacy @200 nM: NG108-15 cell membranes; for EC50 / GTPγS δ-RelEfficacy @200 nM: averages if tested more than once; for inhibition at 10 µM: read-out: GTPγS δ-opioid receptor % Inh @10 μM; for GTPγS δ-opioid receptor Rel Efficacy: relative efficacy from dose response; for GTPγS δ-RelEfficacy @200 nM: 200 nM test compound, relative to calculated max of SNC80 dose response curve
T3 construct: NG108-15 cell membranes were purchased from Applied Cell Sciences (Rockville, Md.); host or cells: NG108-15 cell membranes

delta opioid receptor [3] = target: T3, delta opioid receptor; experiment: NG108-15, 24-well delta opioid receptor binding assay
[4] = read-out: δ-binding (Naltrindole ligand) Ki
[5] = read-out: GTPγS δ-opioid receptor EC50
[6] = δ-binding (Naltrindole ligand) Ki
[7] = GTPγS δ-opioid receptor EC50 (μM)
[8] = [3H]Naltrindole ligand, NG108-15 cell membranes, read-out: δ-binding NG108 cell membrane Ki

T1 sequence (P33535 whole entry): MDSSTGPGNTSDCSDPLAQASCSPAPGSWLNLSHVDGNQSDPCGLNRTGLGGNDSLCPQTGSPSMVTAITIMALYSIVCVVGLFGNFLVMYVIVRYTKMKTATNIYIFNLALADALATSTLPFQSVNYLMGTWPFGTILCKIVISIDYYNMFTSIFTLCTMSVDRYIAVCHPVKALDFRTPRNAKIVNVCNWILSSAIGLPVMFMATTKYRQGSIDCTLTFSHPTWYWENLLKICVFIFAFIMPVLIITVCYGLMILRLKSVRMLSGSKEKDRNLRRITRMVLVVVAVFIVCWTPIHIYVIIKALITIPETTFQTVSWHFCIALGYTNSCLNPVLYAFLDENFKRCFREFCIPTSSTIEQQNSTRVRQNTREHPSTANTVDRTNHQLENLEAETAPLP
T2 sequence (P33533 whole entry): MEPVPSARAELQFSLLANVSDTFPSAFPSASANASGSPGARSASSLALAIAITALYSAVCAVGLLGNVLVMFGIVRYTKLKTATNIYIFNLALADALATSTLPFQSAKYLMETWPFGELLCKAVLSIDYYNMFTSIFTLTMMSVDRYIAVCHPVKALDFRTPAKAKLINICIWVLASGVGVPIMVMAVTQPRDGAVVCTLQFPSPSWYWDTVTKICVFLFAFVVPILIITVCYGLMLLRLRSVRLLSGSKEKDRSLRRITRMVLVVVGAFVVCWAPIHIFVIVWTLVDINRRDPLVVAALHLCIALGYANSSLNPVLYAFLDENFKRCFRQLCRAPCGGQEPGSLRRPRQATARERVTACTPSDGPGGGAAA
T3 sequence (P32300 whole entry): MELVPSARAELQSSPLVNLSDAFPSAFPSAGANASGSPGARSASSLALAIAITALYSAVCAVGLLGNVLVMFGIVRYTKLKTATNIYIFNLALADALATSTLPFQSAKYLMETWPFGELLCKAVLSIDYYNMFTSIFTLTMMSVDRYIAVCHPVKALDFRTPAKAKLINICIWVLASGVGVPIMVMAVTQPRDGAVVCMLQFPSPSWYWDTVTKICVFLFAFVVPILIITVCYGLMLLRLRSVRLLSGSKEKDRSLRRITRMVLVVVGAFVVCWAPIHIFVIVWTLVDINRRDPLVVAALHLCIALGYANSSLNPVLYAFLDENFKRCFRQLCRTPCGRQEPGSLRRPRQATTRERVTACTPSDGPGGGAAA

GTPγS δ-opioid receptor Rel Efficacy (delta opioid receptor [2])	Ki (delta opioid receptor [3]; [8]) [nM]	SMILES	Ki (mu opioid receptor; read-out: μ-binding Ki) [nM]	EC50 (delta opioid receptor [2]; [5]) [µM]	Ki (delta opioid receptor [1]; [6]) [nM]	other results
0.912		COc1ccc(Oc2nc(-c3ccncc3)ncc2NC[C@@H]2CCCN2)cc1 [Cpd 7]	2170	0.436		Ki (delta opioid receptor [1]; [4]): 13 nM; inhibition at 10 µM (delta opioid receptor [2]): 17.1%
		COc1ccc(Oc2nc(-c3ccc(F)c(F)c3)ncc2NC[C@@H]2CCCN2)cc1 [Cpd 56]	1940	0.536	15	inhibition at 10 µM (delta opioid receptor [2]): 26.3%
		COc1ccc(Oc2nc(-c3cnc(OC)nc3OC)ncc2NC[C@@H]2CCCN2)cc1 [Cpd 58]	640	1.51	4	inhibition at 10 µM (delta opioid receptor [2]): 12.8%
		COc1ccc(Oc2nc(-c3ccc4c(c3)CCO4)ncc2NC[C@@H]2CCCN2)cc1 [Cpd 63]	633	0.693	37	
0.824		COc1ccc(Oc2nc(-c3cn[nH]c3)ncc2NC[C@@H]2CCCN2)cc1 [Cpd 65]	555	0.339		Ki (delta opioid receptor [1]; [4]): 3 nM
		COc1ccc(Oc2nc(-c3ccnc(SC)n3)ncc2NC[C@@H]2CCCN2)cc1 [Cpd 66, [4-(4-Methoxy-phenoxy)-2′-methylsulfanyl-[2,4]bipyrimidinyl-5-yl]-pyrrolidin-2-(S)-ylmethyl-amine]	390	0.568	10	inhibition at 10 µM (delta opioid receptor [2]): 5.77%
		COc1ccc(Oc2nc(-c3cnn(C)c3)ncc2NC[C@@H]2CCCN2)cc1 [Cpd 67]	1560	0.194	1	
0.905		COc1ccc(Oc2nc(-c3ccc(N)nc3)ncc2NC[C@@H]2CCCN2)cc1 [Cpd 72]	732	0.105		Ki (delta opioid receptor [1]; [4]): 2 nM; inhibition at 10 µM (delta opioid receptor [2]): 15.2%
		COc1ccc(Oc2nc(-c3ccc(O)nc3)ncc2NC[C@@H]2CCCN2)cc1 [Cpd 74]	1060	0.856	26	inhibition at 10 µM (delta opioid receptor [2]): 2.37%
		COc1ccc(Oc2nc(-c3cncnc3)ncc2NC[C@@H]2C[C@@H](F)CN2)cc1 [Cpd 80]	106	0.113	2	
		c1ncc(-c2ncc(NC[C@@H]3CCCN3)c(Oc3ccc4ncsc4c3)n2)cn1 [Cpd 85]	> 10000	> 10	2	
		N#Cc1cncc(-c2ncc(NC[C@@H]3CCCN3)c(Oc3ccc4ncsc4c3)n2)c1 [Cpd 86]	1180	0.386	2	
		CCOc1ccc(Oc2nc(-c3cncnc3)ncc2NC[C@@H]2CCCN2)cc1 [Cpd 105]	421	0.146	3	
1.124	0.4	FC(F)(F)COc1ccc(Oc2nc(-c3cncnc3)ncc2NC[C@@H]2CCCN2)cc1 [Cpd 123]		0.057		GTPγS δ-RelEfficacy @200 nM (delta opioid receptor [2]): 0.653
1.144	0.4	Fc1cncc(-c2ncc(NC[C@@H]3CCCN3)c(Oc3ccc(Cl)cc3)n2)c1 [Cpd 128]		0.453		
0.976	0.3	N#Cc1cncc(-c2ncc(NC[C@@H]3CCCN3)c(Oc3ccc(Cl)cc3)n2)c1 [Cpd 129]		0.0551		GTPγS δ-RelEfficacy @200 nM (delta opioid receptor [2]): 0.633
	2	Clc1ccc(Oc2nc(-c3cncnc3)ncc2NC[C@@H]2CCCN2)cc1 [Cpd 130]				GTPγS δ-RelEfficacy @200 nM (delta opioid receptor [2]): 0.245
1.063	0.2	COc1ccc(Oc2nc(-c3cncc(F)c3)ncc2NC[C@@H]2CCCN2)cc1F [Cpd 131]		0.076		GTPγS δ-RelEfficacy @200 nM (delta opioid receptor [2]): 0.819

GTPγS δ-opioid receptor Rel Efficacy (delta opioid receptor [2])	Ki (delta opioid receptor [3]; [8]) [nM]	SMILES	Ki (mu opioid receptor; read-out: μ-binding Ki) [nM]	EC50 (delta opioid receptor [2]; [5]) [µM]	Ki (delta opioid receptor [1]; [6]) [nM]	other results
1.041	0.4	COc1ccc(Oc2nc(-c3cncnc3)ncc2NC[C@@H]2CCCN2)cc1F [Cpd 133]		0.028		GTPγS δ-RelEfficacy @200 nM (delta opioid receptor [2]): 0.755
		N#Cc1cccc(Oc2nc(-c3cccnc3)ncc2NC[C@@H]2CCCN2)c1 [Cpd 135, 3-{2-Pyridin-3-yl-5-[(pyrrolidin-2-(S)-ylmethyl)-amino]-pyrimidin-4-yloxy}-benzonitrile]		1.38		Ki (delta opioid receptor [3]): 2 nM
0.789	7	N#Cc1ccc(Oc2nc(-c3cccnc3)ncc2NC[C@@H]2CCCN2)cc1 [Cpd 136]		9		
	9	N#Cc1ccc(Oc2nc(-c3cccnc3)ncc2NC[C@@H]2CCCN2)cc1F [Cpd 137]		> 10		
		O=C(Nc1ccc(Oc2nc(-c3cccnc3)ncc2NC[C@@H]2CCCN2)cc1)C1CC1 [Cpd 138, Cyclopropanecarboxylic acid (4-{2-pyridin-3-yl-5-[(pyrrolidin-2-(S)-ylmethyl)-amino]-pyrimidin-4-yloxy}-phenyl)-amide]		1.34		Ki (delta opioid receptor [3]): 4 nM
1.118	2	CC(C)Oc1ccc(Oc2nc(-c3cncc(C#N)c3)ncc2NC[C@@H]2CCCN2)cc1 [Cpd 139]		2.27		
	8	CC(C)Oc1ccc(Oc2nc(-c3cncnc3)ncc2NC[C@@H]2CCCN2)cc1 [Cpd 140]				GTPγS δ-RelEfficacy @200 nM (delta opioid receptor [2]): 0.137
	3	CC(C)Oc1ccc(Oc2nc(-c3cccnc3)ncc2NC[C@@H]2CCCN2)cc1 [Cpd 141]				GTPγS δ-RelEfficacy @200 nM (delta opioid receptor [2]): 0.149
1.066	1	N#Cc1cncc(-c2ncc(NC[C@@H]3CCCN3)c(Oc3ccc(CO)cc3)n2)c1 [Cpd 143]		0.69		
		OCc1ccc(Oc2nc(-c3cncnc3)ncc2NC[C@@H]2CCCN2)cc1 [Cpd 144]				Ki (delta opioid receptor [3]): 7 nM; GTPγS δ-RelEfficacy @200 nM (delta opioid receptor [2]): 0.191
	338	O=C(c1ccc(Oc2nc(-c3cccnc3)ncc2NC[C@@H]2CCCN2)cc1)N1CCCCC1 [Cpd 160, Piperidin-1-yl-(4-{2-pyridin-3-yl-5-[(pyrrolidin-2-(S)-ylmethyl)-amino]-pyrimidin-4-yloxy}-phenyl)-methanone]				
	795	O=C(c1ccc(Oc2nc(-c3cccnc3)ncc2NC[C@@H]2CCCN2)cc1)N1CCOCC1 [Cpd 161]				
	852	CN1CCN(C(=O)c2ccc(Oc3nc(-c4cccnc4)ncc3NC[C@@H]3CCCN3)cc2)CC1 [Cpd 162]				
	2280	O=C(O)c1cccc(Oc2nc(-c3cncc(F)c3)ncc2NC[C@@H]2CCCN2)c1 [Cpd 164]				
	3760	O=C(O)c1ccc(Oc2nc(-c3cncc(F)c3)ncc2NC[C@@H]2CCCN2)cc1 [Cpd 165]				
	33	CN1CCN(C(=O)c2cccc(Oc3nc(-c4cccnc4)ncc3NC[C@@H]3CCCN3)c2)CC1 [Cpd 169]				
		COc1ccc(Oc2nc(-c3cncnc3)ncc2NC[C@@H](N)CC(C)C)cc1 [Cpd 295]				Ki (delta opioid receptor [3]): 64 nM
		COc1ccc(Oc2nc(-c3cncc(C#N)c3)ncc2NC[C@H]2CCCC[C@@H]2N)cc1 [Cpd 299]	222	0.129	23	

SMILES	GTPγS δ-opioid receptor Rel Efficacy (delta opioid receptor [2])	Ki (delta opioid receptor [3]; [8]) [nM]	Ki (mu opioid receptor; read-out: μ-binding Ki) [nM]	EC50 (delta opioid receptor [2]; [5]) [µM]	Ki (delta opioid receptor [1]; [6]) [nM]	other results
COc1ccc(Oc2nc(-c3cccc4ccccc34)ncc2NC[C@@H]2CCCN2)cc1 [Cpd 5]	0.803		> 10000	0.164		Ki (delta opioid receptor [1]; [4]): 157 nM; inhibition at 10 µM (delta opioid receptor [2]): 18.1%
CCOc1ncc(-c2ncc(NC[C@@H]3CCCN3)c(Oc3ccc(OC)cc3)n2)cn1 [Cpd 60]	0.926				14	Ki (mu opioid receptor; μ-binding Ki): 1520 nM; EC50 (delta opioid receptor [2]; [7]): 0.089 µM; inhibition at 10 µM (delta opioid receptor [2]): 3.73%
COc1ccc(Oc2nc(-c3ccc(OC)c(F)c3)ncc2NC[C@@H]2CCCN2)cc1 [Cpd 64]	0.830				8	Ki (mu opioid receptor; μ-binding Ki): 466 nM; EC50 (delta opioid receptor [2]; [7]): 0.088 µM; inhibition at 10 µM (delta opioid receptor [2]): 12%
COc1ccc(Oc2nc(-c3ccc4c(c3)OCO4)ncc2NC[C@@H]2CCCN2)cc1 [Cpd 93]	1.115				8	Ki (mu opioid receptor; μ-binding Ki): 554 nM; EC50 (delta opioid receptor [2]; [7]): 0.072 µM
CCOc1ccc(Oc2nc(-c3cncc(C#N)c3)ncc2NC[C@@H]2CCCN2)cc1 [Cpd 104]	0.921				8	Ki (mu opioid receptor; μ-binding Ki): 190 nM; EC50 (delta opioid receptor [2]; [7]): 0.018 µM
COc1ccc(Oc2nc(-c3cncnc3)ncc2NC2CCCNC2)cc1 (centres unmarked) [Cpd 109]	1.102				1	Ki (mu opioid receptor; μ-binding Ki): 522 nM; EC50 (delta opioid receptor [2]; [7]): 0.057 µM
N#Cc1cncc(-c2ncc(NC[C@@H]3CCCN3)c(Oc3ccc(OC(F)F)cc3)n2)c1 [Cpd 110]	0.986				33	Ki (mu opioid receptor; μ-binding Ki): 1070 nM; EC50 (delta opioid receptor [2]; [7]): 0.081 µM
CCCOc1ccc(Oc2nc(-c3cncc(C#N)c3)ncc2NC[C@@H]2CCCN2)cc1 [Cpd 113]	1.104				45	Ki (mu opioid receptor; μ-binding Ki): 1430 nM; EC50 (delta opioid receptor [2]; [7]): 0.075 µM
COc1ccc(Oc2nc(-c3cnc(C#N)nc3)ncc2NC[C@@H]2CCCN2)cc1 [Cpd 121]	1.010				20	Ki (mu opioid receptor; μ-binding Ki): 379 nM; EC50 (delta opioid receptor [2]; [7]): 0.019 µM
COc1ccc(Oc2nc(-c3cc(F)cc(C#N)c3)ncc2NC[C@@H]2CCCN2)cc1 [Cpd 142]	1.006	0.2		0.029		GTPγS δ-RelEfficacy @200 nM (delta opioid receptor [2]): 0.931
O=C(c1ccc(Oc2nc(-c3cccnc3)ncc2NC[C@@H]2CCCN2)cc1)N1CCCC1 [Cpd 158]		1600				
O=C(O)c1ccc(Oc2nc(-c3cccnc3)ncc2NC[C@@H]2CCCN2)cc1 [Cpd 159]		4450				
O=C(O)c1cccc(Oc2nc(-c3cccnc3)ncc2NC[C@@H]2CCCN2)c1 [Cpd 163]		6390				

From patent publication US8513271B2, “Pyrimidine compounds as delta opioid receptor modulators” (Janssen Pharmaceutica, NV, priority 2009, dated 2013)
